Results reported in patent publication US8232407B2, “Nitrogenous heterocyclic compounds with insecticidal activity, and the preparation and use thereof” (East China University of Science and Technology, priority 2008, dated 2012).

Legend:
Type in all cases: in vivo
[1] = test system: Aphis craccivoral; assay: Insecticidal activities to aphids, immersion method; settings: for Aphis craccivoral Mortality (%) 500 ppm: in vivo; for mortality at 500 ppm: Aphis, read-out: Aphis craccivoral Mortality (%) 500 ppm
Method: (1): Insecticidal Activities to Aphids
Aphis (Aphis craccivoral), which belongs to Homoptera and has a piercing-sucking mouthpart, is a common insect for agricultural plant. Aphis craccivoral was tested by immersion method.
Procedure: exactly weighed various samples were independently added to N,N-dimethylformamide to form 10 g/L stock solutions. The stock solutions were diluted with 0.2 mL/L aqueous Triton X-100 solution to a concentration of 500 ppm. After stably sucking on bean sprout, the wingless adult aphis together with bean sprout were dipped into 500 ppm dilution, taken out after 5 seconds, and the excess dilution was sucked off with bibulous paper. The treated wingless adult aphis was incubated in clean vessel at a constant temperature of 23° C. Each concentration was repeated for 3 times and the control group was treated with 0.2mL/L aqueous Triton X-100 solution. The number of killed aphis was counted after 24 hours and the mortality was to calculated according to the following formula:
(§1) Mortality (%)=(the number of the survival aphis in control group−the number of the survival aphis in the treatment group)/the number of the survival aphis in control group×100%

[2] = test system: Nilaparvata lugens; assay: Insecticidal activities to plant hopper, spraying method; settings: for Nilaparvata lugens Mortality (%) 500 ppm: in vivo; for mortality at 500 ppm: Nilaparvata lugens, 24 h, read-out: Nilaparvata lugens Mortality (%) 500 ppm
Method: as §1
(2): Insecticidal Activities to Plant hopper
Plant hopper (Nilaparvata lugens), which belongs to Homoptera and has a piercing-sucking mouthpart, is a common insect for agricultural plant. Nilaparvata lugens was tested by spraying method.
Procedure: the test compound was exactly formulated with acetone to form solutions having concentrations of 500, 250, 100, 50, 25, 12.5, 6.25, 3.13, 1.57 and 0.79 ppm, respectively. Aqueous acetone solution was used as control. Each treatment was repeated for 3 tumblers (3 times). Two ml of solution was sprayed uniformly to each tumbler with a mini manual sprayer. 10 insects were introduced to every basin 6 hours before spraying. Three series of experiments were conducted. The number of killed insects was counted after 24 hours to calculate the mortality according to the above mentioned formula.

[3] = test system: Pseudaletia separate Walker; assay: Insecticidal activities to armyworm, leaf dipping and feeding
Method: as §1
(3): Insecticidal Activities to Armyworm
Armyworm (Pseudaletia separate Walker) was tested by the way of leaf dipping and feeding. The test compound was exactly formulated with acetone into solutions having concentrations of 500, 250, 100, 50, 25, 12.5, 6.25, 3.13 and 1.57 ppm, respectively. Aqueous acetone solution was used as control. Fresh maize leaves were immersed in the solution for 3 seconds, dried at room temperature, and fed to the tested insects. Each treatment was tested with 10 insects and repeated for 3 tumblers (3 times). The number of killed insects was counted after 24 hours to calculate the mortality according to the above mentioned formula.

[4] = test system: Plutella xylostella; assay: Insecticidal activities to diamondback moth, feeding dipped leaves; settings: for Plutella xylostella Mortality (%) 500 ppm: in vivo; for mortality at 500 ppm: Plutella xylostella, 24 h, read-out: Plutella xylostella Mortality (%) 500 ppm
Method: as §1
(4): Insecticidal Activities to Diamondback Moth
Diamondback moth (Plutella xylostella) was tested by the way of feeding dippedleaves. Fresh cabbage leaves were immersed in above mentioned solution for 3 seconds, dried at room temperature, and fed to the tested insects. Each treatment was tested with 10 insects and repeated for 3 tumblers (3 times), while water was used as control. The number of killed insects was counted after 24 hours to calculate the mortality according to the above mentioned formula.

[5] = 500 ppm, leaf dipping and feeding, counted after 24 hours

SMILES | Aphis craccivoral Mortality (%) 500 ppm [1] [%] | Nilaparvata lugens Mortality (%) 500 ppm [2] [%] | Pseudaletia separate Walker Mortality (%) 500 ppm ([3]; in vivo) [%] | Plutella xylostella Mortality (%) 500 ppm [4] [%] | mortality at 500 ppm [1] [%] | mortality at 500 ppm [2] [%] | Pseudaletia separate Walker Mortality (%) 500 ppm [3, 5] [%] | mortality at 500 ppm [4] [%]
O=[N+]([O-])C(=Cc1cc(Cl)co1)C1=NCCN1Cc1cnc(Cl)s1 [Compound 73] | 100 | 100 | 100 | 100 | – | – | – | –
O=[N+]([O-])/C(=C/c1ccco1)C1=NCCN1CC1CCOC1 (centres unmarked) [Compound 91, 2-(2-(furan-2-yl)-1-nitrovinyl)-1-((tetrahydrofuran-3-yl)methyl)-4,5-dihydro-1H-imidazole] | – | – | – | – | 87 | 100 | 98 | 100
CC(=C(C1=NCCN1C(C)c1ccc(Cl)nc1)[N+](=O)[O-])c1ccc(Cl)o1 (racemic) [Compound 136] | 100 | 100 | 100 | 100 | – | – | – | –
CC(c1ccc(Cl)nc1)N1CCN=C1C(=Cc1ccc(Cl)s1)[N+](=O)[O-] (racemic) [Compound 130] | 100 | 100 | 100 | 76 | – | – | – | –
O=[N+]([O-])C(=Cc1ccco1)C1=NCCN1Cc1ccccc1 [Compound 103] | 86 | 100 | 70 | 25 | – | – | – | –
CC(c1ccc(Cl)nc1)N1CCN=C1C(=Cc1ccc(Cl)o1)[N+](=O)[O-] (racemic) [Compound 125] | 100 | 100 | 98 | 100 | – | – | – | –
CC(c1ccc(Cl)nc1)N1CCN=C1C(=Cc1ccc[nH]1)[N+](=O)[O-] (racemic) [Compound 131] | 100 | 100 | 100 | 63 | – | – | – | –
O=[N+]([O-])C(=Cc1oc(Cl)cc1Cl)C1=NCCN1CC1CCOC1 (centres unmarked) [Compound 99] | 87 | 97 | 100 | 100 | – | – | – | –
CCc1ccc(C=C(C2=[N+](C)CCN2Cc2ccc(Cl)nc2)[N+](=O)[O-])s1.[Cl-] [Compound 272] | 100 | 100 | 100 | 100 | – | – | – | –
CC(=C(C1=NCCN1C(C)c1ccc(Cl)nc1)[N+](=O)[O-])c1ccco1 (racemic) [Compound 133] | 48 | 50 | 90 | 68 | – | – | – | –
CC(c1ccc(Cl)nc1)N1CCN=C1C(=Cc1ccc(Br)o1)[N+](=O)[O-] (racemic) [Compound 126] | 100 | 100 | 100 | 100 | – | – | – | –
CC[N+]1=C(C(=Cc2ccc([N+](=O)[O-])s2)[N+](=O)[O-])N(Cc2ccc(Cl)nc2)CC1.[Cl-] [Compound 293] | 100 | 100 | 100 | 100 | – | – | – | –
CC(c1ccc(Cl)nc1)N1CCN=C1C(=Cc1ccc([N+](=O)[O-])o1)[N+](=O)[O-] (racemic) [Compound 124] | 100 | 100 | 100 | 100 | – | – | – | –
O=[N+]([O-])C(=Cc1cc(Cl)co1)C1=NCCN1Cc1ccc(Cl)nc1 [Compound 6] | 100 | 100 | 100 | 100 | – | – | – | –
O=[N+]([O-])C(=Cc1sc(Br)cc1Br)C1=NCCN1Cc1ccc(Cl)nc1 [Compound 26] | 100 | 100 | 100 | 100 | – | – | – | –
C[N+]1=C(C(=Cc2cc(Cl)c(Cl)s2)[N+](=O)[O-])N(Cc2ccc(Cl)nc2)CC1.[Cl-] [Compound 266] | 100 | 100 | 100 | 100 | – | – | – | –
O=[N+]([O-])C(=Cc1cc(Br)c(Br)o1)C1=NCCN1Cc1cnc(Cl)s1 [Compound 77] | 100 | 100 | 100 | 100 | – | – | – | –
N#CC(=Cc1ccc([N+](=O)[O-])o1)C1=NCCN1Cc1ccc(Cl)nc1 [Compound 142] | 100 | 100 | 100 | 100 | – | – | – | –
O=[N+]([O-])C(=Cc1cc2ccccc2[nH]1)C1=NCCN1Cc1ccc(Cl)nc1 [Compound 43] | 76 | 90 | 95 | 100 | – | – | – | –
O=[N+]([O-])C(=Cc1cc(Br)cs1)C1=NCCN1Cc1cnc(Cl)s1 [Compound 89] | 100 | 100 | 97 | 100 | – | – | – | –
O=[N+]([O-])C(=Cc1cc(Cl)c(Cl)o1)C1=NCCN1CC1CCOC1 (centres unmarked) [Compound 98] | 76 | 90 | 68 | 77 | – | – | – | –
CCc1ccc(C=C(C2=NCCN2Cc2ccc(Cl)nc2)[N+](=O)[O-])s1 [Compound 29] | 100 | 100 | 100 | 100 | – | – | – | –
O=[N+]([O-])/C(=C/c1ccc([N+](=O)[O-])o1)C1=NCCN1Cc1cnc(Cl)s1 [Compound 70] | – | – | – | – | 100 | 100 | 98 | 100
O=[N+]([O-])C(=Cc1ccc(Cl)s1)C1=NCCN1Cc1ccc(Cl)nc1 [Compound 19] | 100 | 100 | 100 | 100 | – | – | – | –
O=[N+]([O-])C(=Cc1ccc(CO)o1)C1=NCCN1Cc1cnc(Cl)s1 [Compound 82] | 100 | 100 | 100 | 100 | – | – | – | –
CC(=C(C1=NCCN1Cc1ccc(Cl)nc1)[N+](=O)[O-])c1ccco1 [Compound 111] | 45 | 53 | 77 | 25 | – | – | – | –
O=[N+]([O-])C(=Cc1cc(Br)c(Br)o1)C1=NCCN1Cc1ccccc1 [Compound 110] | 58 | 23 | 85 | 51 | – | – | – | –
Cc1coc(C=C(C2=[N+](C)CCN2Cc2ccc(Cl)nc2)[N+](=O)[O-])c1.[Cl-] [Compound 256] | 100 | 100 | 100 | 100 | – | – | – | –
CC(c1ccc(Cl)nc1)N1CCN=C1C(=Cc1ccco1)[N+](=O)[O-] (racemic) [Compound 121] | 100 | 100 | 100 | 56 | – | – | – | –
